Measured values as given in patent US20090298890A1, “NEW N-METHYL BENZAMIDE DERIVATIVES” (BAYER CROPSCIENCE SA, priority 2006, published 2009).

What was measured:
Pyrenophora teres = experiment: In vivo test on Pyrenophora teres (barley net blotch); conditions: barley plants (Express variety), preventive spray 24 hours before contamination, dose 330 ppm, grading 12 days after contamination vs control plants
Method: In Vivo Test on Pyrenophora Teres (Barley Net Blotch)
The active ingredients tested are prepared by homogenization in a mixture of acetone/tween/DMSO, then diluted with water to obtain the desired active material concentration.
Barley plants (Express variety), sown on a 50/50 peat soil-pozzolana substrate in starter cups and grown at 12° C., are treated at the 1-leaf stage (10 cm tall) by spraying with the active ingredient prepared as described above. Plants, used as controls, are treated with the mixture of acetone/tween/DMSO/water not containing the active material.
After 24 hours, the plants are contaminated by spraying them with an aqueous suspension of Pyrenophora teres spores (12,000 spores per ml). The spores are collected from a 12-day-old culture. The contaminated barley plants are incubated for 24 hours at about 20° C. and at 100% relative humidity, and then for 12 days at 80% relative humidity.
Grading is carried out 12 days after the contamination, in comparison with the control plants.

Alternaria alternata = experiment: Cell test on Alternaria alternata; assay type: cell-based; conditions: under similar conditions (10 ppm, OD 620 nm after 5 days at 20° C.)
Method: Cell Test on Alternaria Alternata The growth of Alternaria alternata is performed on PDA medium at 20° C. under black light during 14 days. The PDA medium is prepared by mixing 39 grams of PDA (Merck) in 1 liter of demineralized water. The medium is sterilized by autoclave 15 minutes at 121° C. After 14 days of growth, the spores of Alternaria alternata are recovered in sterilized water and the concentration of spores adjusted to 10^6 spores per ml. The compounds is solubilized in DMSO and added to sterile liquid glucose/mycopeptone medium (14.6 g/l of D-glucose, 7.1 g/l of mycological peptone (Oxoid) and 1.4 g/l of yeast extract (Merck)) at a concentration of 10 ppm. The medium is inoculated with the spore suspension at a concentration of 10^5 spores per ml. The efficacy of the compounds is assessed by OD measurement at 620 nm after 5 days at 20° C. in comparison with a control.

For O=C(NCOc1ncc(C(F)(F)F)cc1Cl)c1ccccc1C(F)(F)F [Compound 1, N-({[3-chloro-5-(trifluoromethyl)pyridin-2-yl]oxy}methyl)-2-(trifluoromethyl)benzamide], the protection (Pyrenophora teres) was “at least 60%”.
For O=C(NOCc1ncc(C(F)(F)F)cc1Cl)c1c(Cl)cccc1Cl [Compound 501], the activity (Alternaria alternata) was “did not show any activity”.
For O=C(NOCc1ncc(C(F)(F)F)cc1Cl)c1c(F)cccc1F [Compound 502, N-{[3-chloro-5-(trifluoromethyl)pyridin-2-yl]methoxy}-2,6-difluorobenzamide], the activity (Alternaria alternata) was “did not show any activity”.
